The IC50 is the concentration at which inhibition is half-maximal. High values mean lower potency, low ones higher potency.

The nature of series [1]: Amount of metabolites in the microsomal medium after 90 min incubation of BTCP (500 uM). It is filed as ADME, Microsome. As to conditions: microsomes, 1.5 h.
Series [2] addresses Sodium-dependent dopamine transporter (Rattus norvegicus, UniProt P23977). The series is described as follows: Inhibitory activity of compound against [3H]BTCP binding to neuronal dopamine transporter of rat striatal membrane.

Sequence of Sodium-dependent dopamine transporter (P23977 whole entry): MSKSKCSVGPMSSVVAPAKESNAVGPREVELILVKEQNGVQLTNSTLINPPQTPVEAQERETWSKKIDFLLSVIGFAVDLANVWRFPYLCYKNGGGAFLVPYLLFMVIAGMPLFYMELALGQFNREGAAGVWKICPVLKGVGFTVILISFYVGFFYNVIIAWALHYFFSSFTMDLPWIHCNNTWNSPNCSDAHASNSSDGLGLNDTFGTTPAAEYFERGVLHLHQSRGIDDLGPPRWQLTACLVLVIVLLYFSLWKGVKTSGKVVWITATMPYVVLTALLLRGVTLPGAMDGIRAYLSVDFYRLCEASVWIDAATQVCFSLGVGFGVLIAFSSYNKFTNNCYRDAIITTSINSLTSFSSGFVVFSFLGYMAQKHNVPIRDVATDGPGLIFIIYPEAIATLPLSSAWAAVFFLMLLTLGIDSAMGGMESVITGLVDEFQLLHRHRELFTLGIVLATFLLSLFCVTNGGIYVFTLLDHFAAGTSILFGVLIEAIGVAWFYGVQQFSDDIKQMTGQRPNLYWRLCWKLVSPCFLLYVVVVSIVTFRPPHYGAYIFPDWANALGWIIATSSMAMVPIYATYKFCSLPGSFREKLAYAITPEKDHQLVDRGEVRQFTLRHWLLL

With `O[C@@H]1CCC[C@@](c2cc3ccccc3s2)(N2CCCCC2)C1`, in series [1], the Amount was determined as 4 pM.

`OC1(c2cc3ccccc3s2)CCCCC1`: the Amount in series [1] was 141 pmol.

Regarding `OC1CCN(C2(c3cc4ccccc4s3)CCCCC2)CC1`, the Amount in series [1] is 615 pmol.

Turning to `OC1CCCN(C2(c3cc4ccccc4s3)CCCCC2)C1` (stereo not given), in series [1], the Amount amounted to 147 pmol. In addition, in series [2], the IC50 was determined as 1.75 nM.

These data come from ChEMBL document CHEMBL1130256, “1-[1-2-Benzo[b]thiopheneyl)cyclohexyl]piperidine hydrochloride (BTCP) yields two active primary metabolites in vitro: synthesis, identification from rat liver microsome extracts, and affinity for the neuronal dopamine transporter” (J Med Chem, 1997).
